The results in this text go back to US6762185B1, “Compounds useful for treatment of cancer, compositions containing the same, and methods of their use” (Choongwae Pharma Corporation, priority 2002, dated 2004).

SMILES strings stand for the structures.

Data set [1] deals with SW480 cells. Put plainly: Soft agar cell growth and colony formation assay. The settings on record: SW480 cells in soft agar, 8 days. It counts as cell-based. As for the experimental part:
FIG. 7. Cell growth and colony formation assays. SW480 cells were treated with TCF4 compound. The resulting cells are placed in a soft agar plate and incubated at 37° C. in CO2 incubator for 8 days. Number of colonies were counted under microscope. Agar plates were prepared to contain 10% FBS, 2 mM L-glutamine, 0.1 mM non-essential amino acid, 1×pen/strep and 1.6% agarose for bottom layer and DMEM containing 10% FBS, 2 mM L-glutamine, 0.1 mM non-essential amino acid, 1×pen/strep for upper layer. TCF4 compound solution and upper layer solution containing agarose were mixed and SW480 cells were added and solidified. Plates were incubated 37° C. at CO2 incubator for 8 days after solidification at room temperature for 30 min and colonies were counted under microscope (FIG. 7).

For data set [2], the system named is survivin. The data set can be described thus: Survivin expression in SW480 cells (RT-PCR and Western blot). Type of data set: cell-based, human. The protocol:
FIGS. 5A and 5B. Inhibition of survivin expression by TCF4 compound in […]. FIG. 5A. Surviving mRNA (363 bp) level was assessed by RT-PCR in SW480 cell 24 hours after incubation 25 μM TCF4 compound. β-actin mRNA (564 bp) level is shown as an internal control. FIG. 5B. Survivin protein (MW 16,500) level was assessed by Western blots in SW480 using anti-survivin monoclonal antibody after TCF4 incubation with compound for 48 hrs.
Total RNA was isolated from SW480 cells treated with the TCF4 compound using Rneasy midi kit (Qiagen, Valencia, Calif., 75142). One microgram of RNA was used as a template for RT-PCR. The expression of survivin was evaluated with RT-PCR and Western blot. The primer used to detect fragments of the survivin gene was designed from published human sequences (Cancer Res., 2001, 62, 8664-8667). The sequences used were 5′-[…]-3′ and 5′-[…]-3′, which can give an amplified product of 363 bp. The RT-PCR reaction was processed by Access RT-PCR system (Promega A1260). (FIG. 5) Survivin 6E4 Monoclonal antibody (Cell signaling Technology, 2802) was used for Western blot of TCF4 compound treated SW480 cells. (FIG. 5B).
For orientation: In western blotting, separated proteins are transferred to a membrane and probed.

Data set [3] concerns SW480 cells. Put plainly: Bioassay for the measurement of IC50 against SW480 cells (TOPFlash/pRL-null luciferase). The settings on record: Homo sapiens, 24 hrs treatment, firefly and renilla luciferase activities, read-out: IC50 against SW480 cell growth. It counts as cell-based. As for the experimental part:
FIG. 8. Measurement of IC50 of TCF4 compound for SW480 cells. Cell growth inhibition on SW480 cells is measured at various concentrations of TCF4 compound in order to obtain the IC50 value. Specifically, the degree of inhibition in firefly and renilla luciferase activities by TCF4 compound was determined. […] Detailed procedures are the same as disclosed in Example 8.
SW480 cells were transfected with the usage of Superfect™ transfect reagent (Qiagen, 301307). Cells were trypsinized briefly 1 day before transfection and plated on 6 well plate (5×10^5 cells/well) so that they were 50-80% confluent on the day of transfection. Four microgram (TOPFlash) and one microgram (pRL-null) of DNAs were diluted in 150 μl of serum-free medium, and 30 μl of Superfect™ transfect reagent was added. The DNA-Superfect mixture was incubated at room temperature for 15 min, after that 1 ml of 10% FBS DMEM was added to this complex for an additional 3 hr of incubation. While complexes were forming, cells were washed with PBS twice without antibiotics. The DNA-Superfect™ transfect reagent complexes were applied to the cells before incubating at 37° C. at 5% CO2 for 3 h. After incubation, recovery medium with 10% FBS was added to bring the final volume to 1.18 ml. After 3 hr incubation, the cells were harvested and reseeded to 96 well plate (3×10^4 cells/well). […]

The subject of data set [4] is caspase-3. Put plainly: Caspase-3 activation in SW480 cells (Cbz-DEVD-R110 substrate). The settings on record: SW480 cells treated 24 hours, dose dependent. Type of data set: cell-based. The protocol:
FIG. 6. TCF4 compound induces caspase-3 activation in a dose-dependent manner. SW480 cells were treated with TCF4 compound for 24 hours. Whole cell protein extracts were prepared and 100 μg aliquots of protein extracts were incubated with Cbz-DEVD-R110 substrate for 2 hours at 37° C. Relative fluorescence unit (RFU) was obtained by subtracting the unit values of the blank control from the experimental measured values. SW480 cells were treated with TCF4 compound for 24 hours, collected and washed with PBS, and lysed in 100 μl ice cold hypotonic lysis buffer which is commercially available (Promega). 100 μg of the cell extracts were incubated in reaction buffer containing Cbz-DEVD-R110 (caspase-3 substrate: Promega) at 37° C. for 2 hours (FIG. 6). It is clear the FIG. 6 that caspase-3 activity was stimulated by the presence of the TCF4 compound, in a dose dependent manner.

For data set [5], the system named is CBP-mediated transcriptional activation. Put plainly: CBP-mediated transcriptional activation, pTOPFlash with CBP and/or β-catenin cotransfection in SW480 cells. Type of data set: cell-based. The settings on record: SW480 cells cotransfected with pTOPFlash. As for the experimental part:
FIG. 2. […] SW480 cells were cotransfected with 1.1 μg of the pTOPFlash reporter, and 0.8 μg […], in the presence or absence of TCF4 compound and CBP and/or β-catenin, which are present in various concentrations(1.1 to 3.3 μg), is shown to reverse the inhibiting action of TCF4 compound on CBP-mediated transcriptional activation.
In order to determine the inhibitory effect of TCF4 compound on CBP-mediated transcriptional activation, reporter plasmid pTOPFlash (1.1 μg), CBP expression vector (1.1 to 3.3 μg), wild type beta-catenin expression vector (1.1 to 3.3 μg) and pRL-null (0.8 μg) were cotransfected into SW480. Total amount of DNA was adjusted to 6.3 μg. After 24 hours incubation, TCF4 compound was added and cells were washed and luciferase activity was measured. Firefly luciferase activity was normalized to renilla luciferase activity (FIG. 2).

Data set [6] concerns SW480 cells. The data set can be described thus: Combination with 5-FU tested against SW480 cell lines. It counts as cell-based. As for the experimental part: It has been known from previous art that 5-FU [Fluorouracil; 5-fluoro-2,4(1H, 3H)-pyrimidinedione] can induce apoptosis in cultured oral cancer cells (D. Tong et al., Oral Oncology 36, 2000 236-241). Further, it is also known that colon cancer has a sensitivity to 5-FU (D. Arango et al., Cancer Research 61, 2001 4910-4915). In the present invention, therefore, the combination of 5-FU having established anti-cancer activity and the compounds of formula (I) of the present invention is prepared and tested against SW480 cell lines. […] Therefore, it is yet another aspect of the present invention to provide a method of treating cancer, which comprises administering to a subject a safe and effective amounts of the compound having formula (I) of claim 1 together with other anti-cancer agent such as 5-Fu.

For data set [7], the target named is T1, CBP (Homo sapiens, UniProt Q92793).
T1 construct: expressed in transfected cells; host or cells: SW480
The data set can be described thus: Binding of 14C-TCF4 compound to nuclear extracts of SW480 transfected with CBP or β-catenin. To be noted: 14C-labelled compound, nuclear lysate of transfected SW480, 4° C., 18 hours. As for the experimental part:
FIG. 3. […] SW480 cells were transiently transfected with β-catenin or CBP expression plasmid. 48 hours after transfection, nuclear protein extracts were collected. 14C-Tcf4 was incubated with nuclear lysate.
Nuclear protein extracts from SW480 transfected with CBP expression vector or wild type β-catenin expression vector were collected using NE-PER Nuclear and Cytoplasmic Extraction Reagents (Pierce) and incubated with ^14C-TCF4 compound at 4° C. for 18 hours. Each samples were washed with Sephadex G-25 columns equilibrated with 5 mL of PBB (20 mM HEPES, pH 7.9, 60 mM NaCl, 6 mM MgCl2, 0.5 mM EDTA, 0.1% NP-40, 20% glycerol, 5 mM 2-ME, 1 mM PMSF) and protein samples eluted by centrifugation were transferred to a scintillation vial containing 2 mL of scintillation fluid. Radio activities were counted using scintillation counter (Beckman).

Data set [8] deals with TCF4/β-catenin transcriptional pathway. Put plainly: TCF4/β-catenin reporter gene assay (pTOPFlash luciferase) in SW480 cells. Type of data set: cell-based. To be noted: 24 hours treatment, firefly normalized to renilla. The protocol:
The compound having general formula (I) wherein R1 is 2-naphthyl and R2 is phenyl is used for this experiment (it is referred to as ‘TCF4 compound’ hereinafter). Each transfection was performed in duplicate and repeated at least three times. SW480 cells were transfected transiently with 4.0 μg firefly luciferase reporter plasmid (pTOPFlash) and 0.8 μg renilla luciferase reporter plasmid (pRL-null). Firefly luciferase activity was normalized to renilla luciferase activity.
SW480 cells were maintained in DMEM with 10% fetal bovine serum supplemented with non-essential amino acid and antibiotics. Transient transfections into SW480 cells were carried out by Superfect (Qiagen,301307). For TCF4/β-catenin reporter gene assay, 4 μg of pTOPFlash and 0.8 μg of pRL-null were cotransfected. After 24 hours of transfection, SW480 cells were treated with TCF4 compound at varying concentrations. Firefly luciferase and renilla luciferase activities were measured 24 hours after said TCF4 compound treatment, and the firefly luciferase activity was normalized to the renilla luciferase activity (FIG. 1).
In general terms: In a reporter assay the amount or activity of a reporter protein is the signal.

In general, IC50 refers to the point on the concentration scale where inhibition reaches its midpoint.

T1 sequence (Q92793 whole entry): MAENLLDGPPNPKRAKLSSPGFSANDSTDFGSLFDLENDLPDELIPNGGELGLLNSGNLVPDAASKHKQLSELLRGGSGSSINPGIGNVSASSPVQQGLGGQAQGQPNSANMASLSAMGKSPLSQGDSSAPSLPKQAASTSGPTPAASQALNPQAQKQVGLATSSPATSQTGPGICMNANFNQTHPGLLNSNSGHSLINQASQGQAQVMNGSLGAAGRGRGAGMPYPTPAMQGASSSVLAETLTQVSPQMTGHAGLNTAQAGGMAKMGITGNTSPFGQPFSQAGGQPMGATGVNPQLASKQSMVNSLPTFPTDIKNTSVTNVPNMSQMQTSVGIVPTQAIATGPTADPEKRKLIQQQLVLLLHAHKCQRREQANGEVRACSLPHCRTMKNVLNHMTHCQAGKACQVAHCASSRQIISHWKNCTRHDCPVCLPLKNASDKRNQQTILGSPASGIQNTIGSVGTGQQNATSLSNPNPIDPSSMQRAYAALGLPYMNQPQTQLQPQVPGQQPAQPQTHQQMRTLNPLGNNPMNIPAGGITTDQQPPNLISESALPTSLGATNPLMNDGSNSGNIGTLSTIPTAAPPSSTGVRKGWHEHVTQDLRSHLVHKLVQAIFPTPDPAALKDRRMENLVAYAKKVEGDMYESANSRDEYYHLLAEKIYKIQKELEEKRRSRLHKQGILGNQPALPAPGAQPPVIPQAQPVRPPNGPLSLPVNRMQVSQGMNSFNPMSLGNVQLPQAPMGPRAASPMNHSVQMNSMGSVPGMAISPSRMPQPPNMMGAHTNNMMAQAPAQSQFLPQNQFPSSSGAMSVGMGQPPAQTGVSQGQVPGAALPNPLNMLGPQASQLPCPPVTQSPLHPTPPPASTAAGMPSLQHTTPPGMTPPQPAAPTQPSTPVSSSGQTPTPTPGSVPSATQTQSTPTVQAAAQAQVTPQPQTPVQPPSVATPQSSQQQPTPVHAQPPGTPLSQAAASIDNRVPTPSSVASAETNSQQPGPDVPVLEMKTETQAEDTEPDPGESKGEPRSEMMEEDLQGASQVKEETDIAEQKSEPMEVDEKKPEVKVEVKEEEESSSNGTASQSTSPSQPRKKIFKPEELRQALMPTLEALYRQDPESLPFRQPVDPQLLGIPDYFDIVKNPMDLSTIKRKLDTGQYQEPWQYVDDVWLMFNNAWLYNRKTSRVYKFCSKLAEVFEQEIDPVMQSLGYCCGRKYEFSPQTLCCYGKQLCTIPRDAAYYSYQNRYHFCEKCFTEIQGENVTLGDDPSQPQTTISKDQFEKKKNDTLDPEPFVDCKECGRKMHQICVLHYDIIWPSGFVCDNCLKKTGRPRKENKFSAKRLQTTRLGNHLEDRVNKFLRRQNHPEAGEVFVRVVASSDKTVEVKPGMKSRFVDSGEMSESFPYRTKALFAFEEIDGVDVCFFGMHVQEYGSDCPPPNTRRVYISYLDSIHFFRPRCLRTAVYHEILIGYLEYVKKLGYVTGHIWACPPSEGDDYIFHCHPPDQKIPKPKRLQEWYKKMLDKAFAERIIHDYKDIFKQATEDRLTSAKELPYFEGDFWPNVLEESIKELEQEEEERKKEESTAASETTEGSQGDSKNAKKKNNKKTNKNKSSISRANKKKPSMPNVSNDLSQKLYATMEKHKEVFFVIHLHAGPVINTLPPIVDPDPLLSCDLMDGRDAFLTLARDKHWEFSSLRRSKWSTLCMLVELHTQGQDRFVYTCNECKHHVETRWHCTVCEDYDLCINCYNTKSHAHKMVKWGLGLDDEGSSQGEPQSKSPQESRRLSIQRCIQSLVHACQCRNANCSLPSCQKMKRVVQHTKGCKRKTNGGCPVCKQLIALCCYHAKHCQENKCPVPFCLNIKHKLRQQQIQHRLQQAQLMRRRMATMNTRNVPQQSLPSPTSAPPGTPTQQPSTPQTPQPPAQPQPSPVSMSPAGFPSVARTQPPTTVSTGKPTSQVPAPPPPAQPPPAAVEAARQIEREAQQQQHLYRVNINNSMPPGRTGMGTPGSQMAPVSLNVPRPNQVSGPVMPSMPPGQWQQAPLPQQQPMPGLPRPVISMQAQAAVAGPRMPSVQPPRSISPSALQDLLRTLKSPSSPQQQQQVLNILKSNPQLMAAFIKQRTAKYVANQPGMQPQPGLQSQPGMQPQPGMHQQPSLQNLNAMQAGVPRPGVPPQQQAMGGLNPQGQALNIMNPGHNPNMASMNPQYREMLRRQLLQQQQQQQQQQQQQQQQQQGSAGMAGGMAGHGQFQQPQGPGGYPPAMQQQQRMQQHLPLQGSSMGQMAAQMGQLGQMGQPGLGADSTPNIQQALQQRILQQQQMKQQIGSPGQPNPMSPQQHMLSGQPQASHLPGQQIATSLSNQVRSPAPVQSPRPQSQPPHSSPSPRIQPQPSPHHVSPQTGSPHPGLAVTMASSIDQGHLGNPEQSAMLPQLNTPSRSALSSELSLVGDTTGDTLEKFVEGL

As to `O=C1[C@H](Cc2ccc(O)cc2)N2C(=O)CCN(C(=O)NCc3ccccc3)[C@H]2CN1Cc1cccc2ccccc12` [TCF4 compound, 6-(4-Hydroxy-benzyl)-8-naphthalen-1-ylmethyl-4-oxo-hexahydro-pyrazino[1,2-α]pyrimidine-1-carboxylic Acid Benzylamide], the “cell growth and colony formation” value in data set [1] is “correlation between the dose of TCF4 compound and the inhibition of cell growth”. Moreover, the “survivin mRNA expression level” value in data set [2] (RT-PCR, 25 μM, 24 hours) is listed as “Inhibits”. Besides, the “survivin protein expression level” value in data set [2] (Western blot, 48 hrs) is listed as “Inhibits”. The IC50 in data set [3] is about 8.07 µM. The caspase-3 activity result in data set [4] is on record as “stimulated”. In addition, the CBP-mediated transcriptional activation entry in data set [5] is “inhibits CBP-mediated transcriptional activation”. Besides, the “inhibition of cancer cell growth in combination with 5-FU” value in data set [6] was “remarkable effect for inhibiting cancer cell growth”. The “binding to CBP” value in data set [7] was “Specific binding”. Besides, in data set [8], the “transcription of the TCF4 responsive reporter gene luciferase” value is on record as “inhibits the transcription of the TCF4 responsive reporter gene luciferase in a dose-dependent manner”.
